Series [1] deals with Nav 1.5 (Homo sapiens (Human), UniProt Q14524). Nature of the series: Nav 1.5 in vitro assay (IonWorks Quattro population patch-clamp). Format: cell-based. To be noted: 293 cells stably transfected with Nav 1.5; 26th pulse to -20 mV, 5 Hz. How it is done:
(§1) Nav 1.7 and Nav 1.5 In Vitro Assay
(§2) 293 cells stably transfected with either Nav 1.7 or with Nav 1.5 were recorded in population patch-clamp mode with the IonWorks® Quattro automated electrophysiology system in accordance with the manufacturer's specifications (Molecular Devices, LLC, Sunnyvale, Calif.). Sodium channel currents were measured in response to a train of depolarizations that induced successively greater inactivation.
(§3) Cells were held at −110 mV for three seconds (Nav 1.7) or half a second (Nav 1.5) from a holding voltage of −15 mV, then put through a series of 26 pulses of 150 msec duration to −20 mV at a frequency of 5 Hz. Cells were then left unclamped for a period of 3 to 8 minutes while a single concentration of test compound was added. Cells were then reclamped and put through the same voltage protocol. Current at the end of the 26th pulse to −20 mV was subtracted from the peak current evoked by the 26th pulse to −20 mV to correct for leak current. Percent block was calculated for each concentration in duplicate, and IC50 curves were fitted to percent block as a function of concentration.
A general note: The patch-clamp technique gives a direct electrical read-out from membranes.

The target of series [2] is Nav 1.7 (Homo sapiens (Human), UniProt Q15858). In words: Nav 1.7 in vitro assay (IonWorks Quattro population patch-clamp). The settings on record: 293 cells stably transfected with Nav 1.7; 26th pulse to -20 mV, 5 Hz. Format: cell-based. How it is done: as §1, §2, §3
Chain of Nav 1.7 (Q15858 whole entry): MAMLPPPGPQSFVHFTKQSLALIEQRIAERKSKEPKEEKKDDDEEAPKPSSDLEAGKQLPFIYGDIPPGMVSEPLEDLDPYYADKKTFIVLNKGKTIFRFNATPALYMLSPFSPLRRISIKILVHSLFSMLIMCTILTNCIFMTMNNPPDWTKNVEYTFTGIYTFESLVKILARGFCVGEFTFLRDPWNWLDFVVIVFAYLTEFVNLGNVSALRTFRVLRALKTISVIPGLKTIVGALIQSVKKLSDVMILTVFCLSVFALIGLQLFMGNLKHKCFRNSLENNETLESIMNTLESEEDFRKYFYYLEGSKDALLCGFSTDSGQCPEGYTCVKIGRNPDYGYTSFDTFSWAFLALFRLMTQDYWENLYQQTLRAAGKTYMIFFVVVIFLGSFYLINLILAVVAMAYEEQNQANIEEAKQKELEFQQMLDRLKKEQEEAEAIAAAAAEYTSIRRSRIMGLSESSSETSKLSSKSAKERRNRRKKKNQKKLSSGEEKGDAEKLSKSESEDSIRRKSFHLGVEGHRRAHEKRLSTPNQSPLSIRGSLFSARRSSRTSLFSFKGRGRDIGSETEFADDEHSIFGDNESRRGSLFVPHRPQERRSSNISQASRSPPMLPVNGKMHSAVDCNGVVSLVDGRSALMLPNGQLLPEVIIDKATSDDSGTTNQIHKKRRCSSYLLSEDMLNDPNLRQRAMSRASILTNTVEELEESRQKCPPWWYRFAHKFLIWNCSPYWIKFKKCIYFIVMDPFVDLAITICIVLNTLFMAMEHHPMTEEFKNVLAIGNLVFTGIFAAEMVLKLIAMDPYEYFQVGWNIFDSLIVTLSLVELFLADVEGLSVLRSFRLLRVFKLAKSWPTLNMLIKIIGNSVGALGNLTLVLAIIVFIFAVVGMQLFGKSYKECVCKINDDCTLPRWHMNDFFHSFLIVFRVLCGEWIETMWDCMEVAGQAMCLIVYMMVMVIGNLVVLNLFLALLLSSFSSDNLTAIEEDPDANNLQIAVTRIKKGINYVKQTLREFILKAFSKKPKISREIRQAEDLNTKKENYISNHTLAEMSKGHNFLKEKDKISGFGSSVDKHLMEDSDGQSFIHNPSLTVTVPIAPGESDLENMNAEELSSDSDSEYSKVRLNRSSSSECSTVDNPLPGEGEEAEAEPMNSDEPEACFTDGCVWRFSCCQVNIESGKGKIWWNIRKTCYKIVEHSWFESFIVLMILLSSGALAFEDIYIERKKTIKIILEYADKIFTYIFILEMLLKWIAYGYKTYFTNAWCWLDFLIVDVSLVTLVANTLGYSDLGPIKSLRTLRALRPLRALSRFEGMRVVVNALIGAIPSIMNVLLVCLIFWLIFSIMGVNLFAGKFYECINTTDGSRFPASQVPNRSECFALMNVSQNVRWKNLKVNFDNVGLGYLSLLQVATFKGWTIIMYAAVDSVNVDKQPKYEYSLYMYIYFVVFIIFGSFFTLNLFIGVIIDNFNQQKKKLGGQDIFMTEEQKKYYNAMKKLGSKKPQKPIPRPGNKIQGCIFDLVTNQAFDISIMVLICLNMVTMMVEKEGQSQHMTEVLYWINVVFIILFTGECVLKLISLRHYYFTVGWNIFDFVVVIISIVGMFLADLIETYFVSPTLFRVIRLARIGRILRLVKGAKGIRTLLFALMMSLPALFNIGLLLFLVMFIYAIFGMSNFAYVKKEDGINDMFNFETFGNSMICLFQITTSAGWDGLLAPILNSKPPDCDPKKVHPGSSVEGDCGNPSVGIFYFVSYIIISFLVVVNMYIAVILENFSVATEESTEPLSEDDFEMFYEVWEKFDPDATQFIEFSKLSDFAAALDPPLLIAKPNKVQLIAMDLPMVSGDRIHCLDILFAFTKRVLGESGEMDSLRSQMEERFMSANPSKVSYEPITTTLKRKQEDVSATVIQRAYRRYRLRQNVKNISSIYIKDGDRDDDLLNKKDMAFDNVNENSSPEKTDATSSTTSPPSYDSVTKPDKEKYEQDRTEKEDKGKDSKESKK

Chain of Nav 1.5 (Q14524 whole entry): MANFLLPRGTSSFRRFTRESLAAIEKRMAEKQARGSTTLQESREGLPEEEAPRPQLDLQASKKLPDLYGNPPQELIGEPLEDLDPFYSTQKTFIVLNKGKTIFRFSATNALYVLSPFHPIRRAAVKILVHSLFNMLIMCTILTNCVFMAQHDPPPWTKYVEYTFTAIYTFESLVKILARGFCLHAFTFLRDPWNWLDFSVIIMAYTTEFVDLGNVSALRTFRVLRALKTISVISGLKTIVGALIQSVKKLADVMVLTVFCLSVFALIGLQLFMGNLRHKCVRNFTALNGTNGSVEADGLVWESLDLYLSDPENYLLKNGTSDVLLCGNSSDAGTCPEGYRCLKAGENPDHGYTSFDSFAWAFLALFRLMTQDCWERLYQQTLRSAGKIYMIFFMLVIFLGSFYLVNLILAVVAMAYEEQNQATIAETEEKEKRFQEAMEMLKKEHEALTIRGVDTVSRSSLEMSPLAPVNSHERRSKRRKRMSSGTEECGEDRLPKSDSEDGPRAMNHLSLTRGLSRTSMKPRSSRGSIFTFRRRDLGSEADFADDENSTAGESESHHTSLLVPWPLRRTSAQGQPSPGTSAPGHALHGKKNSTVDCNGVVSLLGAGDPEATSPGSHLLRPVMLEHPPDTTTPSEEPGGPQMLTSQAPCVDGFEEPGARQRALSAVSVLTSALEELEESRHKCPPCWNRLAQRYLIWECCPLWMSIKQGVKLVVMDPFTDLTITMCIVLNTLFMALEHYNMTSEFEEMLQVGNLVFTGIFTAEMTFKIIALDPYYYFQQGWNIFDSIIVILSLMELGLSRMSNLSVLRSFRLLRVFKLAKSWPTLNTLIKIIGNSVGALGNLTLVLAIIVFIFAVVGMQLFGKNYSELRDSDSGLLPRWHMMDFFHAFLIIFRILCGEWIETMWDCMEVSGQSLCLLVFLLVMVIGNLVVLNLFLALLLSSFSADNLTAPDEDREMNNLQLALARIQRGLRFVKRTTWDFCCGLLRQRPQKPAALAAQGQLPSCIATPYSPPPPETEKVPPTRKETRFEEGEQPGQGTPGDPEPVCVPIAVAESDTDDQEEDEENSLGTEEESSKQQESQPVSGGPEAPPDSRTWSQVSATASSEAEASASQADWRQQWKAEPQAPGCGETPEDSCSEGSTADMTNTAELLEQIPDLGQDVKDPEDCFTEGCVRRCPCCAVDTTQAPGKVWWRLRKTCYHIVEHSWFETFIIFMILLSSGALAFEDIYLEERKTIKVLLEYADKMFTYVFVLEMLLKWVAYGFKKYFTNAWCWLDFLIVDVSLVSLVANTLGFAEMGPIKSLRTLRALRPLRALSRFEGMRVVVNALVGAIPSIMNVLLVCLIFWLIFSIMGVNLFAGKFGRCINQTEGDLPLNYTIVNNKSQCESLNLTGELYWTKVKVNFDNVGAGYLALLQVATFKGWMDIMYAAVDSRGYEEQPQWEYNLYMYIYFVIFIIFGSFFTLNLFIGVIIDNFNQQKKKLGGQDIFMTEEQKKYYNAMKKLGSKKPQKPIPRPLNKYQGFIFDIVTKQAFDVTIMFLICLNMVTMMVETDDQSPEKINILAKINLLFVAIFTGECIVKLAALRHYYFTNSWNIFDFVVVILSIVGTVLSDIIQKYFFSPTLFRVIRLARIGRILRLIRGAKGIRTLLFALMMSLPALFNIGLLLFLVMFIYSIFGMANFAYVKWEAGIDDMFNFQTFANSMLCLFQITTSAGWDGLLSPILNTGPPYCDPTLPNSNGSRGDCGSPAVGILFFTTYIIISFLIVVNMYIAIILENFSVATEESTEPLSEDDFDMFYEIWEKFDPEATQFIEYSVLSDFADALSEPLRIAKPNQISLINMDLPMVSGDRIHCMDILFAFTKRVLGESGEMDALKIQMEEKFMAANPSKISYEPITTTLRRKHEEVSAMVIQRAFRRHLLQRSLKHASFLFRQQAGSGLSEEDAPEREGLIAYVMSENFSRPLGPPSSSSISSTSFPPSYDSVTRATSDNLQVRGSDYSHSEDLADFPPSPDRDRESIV

As to `Cn1nccc1-c1cc(Cl)ccc1-c1c[nH]c2cc(S(=O)(=O)Nc3ncns3)ccc12` [Example 1, 3-(4-Chloro-2-(1-Methyl-1H-Pyrazol-5-yl)Phenyl)-N-(1,2,4-Thiadiazol-5-yl)-1H-Indole-6-Sulfonamide], the IC50 (commonly the concentration that inhibits the measured activity by half) in series [1] was greater than 10 µM; in series [2], 0.445 µM.

On to `Cn1nccc1-c1cc(Cl)ccc1-c1cn(C)c2cc(S(=O)(=O)Nc3ncns3)ccc12` [Example 2, 3-(4-Chloro-2-(1-Methyl-1H-Pyrazol-5-yl)Phenyl)-1-Methyl-N-(1,2,4-Thiadiazol-5-yl)-1H-Indole-6-Sulfonamide], for which the IC50 in series [1] is greater than 10 µM; in series [2], 0.253 µM.

On to `CC(C)n1cc(-c2ccc(C(F)(F)F)cc2-c2ccnn2C)c2ccc(S(=O)(=O)Nc3ncns3)cc21` [Example 3, 1-Isopropyl-3-(2-(1-Methyl-1H-Pyrazol-5-yl)-4-(Trifluoromethyl)Phenyl)-N-(1,2,4-Thiadiazol-5-yl)-1H-Indole-6-Sulfonamide], for which the 50% inhibitory concentration (IC50) was greater than 10 µM in series [1] and 1.93 µM in series [2].

Consider `CC(=O)n1cc(-c2ccc(C(F)(F)F)cc2-c2ccnn2C)c2ccc(S(=O)(=O)Nc3ncns3)cc21` [Example 4, 1-Acetyl-3-(2-(1-Methyl-1H-Pyrazol-5-yl)-4-(Trifluoromethyl)Phenyl)-N-(1,2,4-Thiadiazol-5-yl)-1H-Indole-6-Sulfonamide], for which the results for the 50% inhibitory concentration (IC50) in series [1] and in series [2] were greater than 10 µM and 0.0505 µM, respectively.

For the compound `Cn1nccc1-c1cc(C(F)(F)F)ccc1-c1c[nH]c2cc(S(=O)(=O)Nc3ncns3)ccc12` [Example 5, 3-(2-(1-Methyl-1H-Pyrazol-5-yl)-4-(Trifluoromethyl)Phenyl)-N-(1,2,4-Thiadiazol-5-yl)-1H-Indole-6-Sulfonamide], the half-maximal inhibitory concentration (IC50) was greater than 10 µM in series [1] and 0.724 µM in series [2].

On to `COC(=O)n1cc(-c2ccc(C(F)(F)F)cc2-c2ccnn2C)c2ccc(S(=O)(=O)Nc3ncns3)cc21` [Example 6, Methyl 6-(N-(1,2,4-Thiadiazol-5-yl)Sulfamoyl)-3-(2-(1-Methyl-1H-Pyrazol-5-yl)-4-(Trifluoromethyl)Phenyl)-1H-Indole-1-Carboxylate], for which the concentration for half-maximal inhibition (IC50) in series [1] is greater than 10 µM; in series [2], 0.356 µM.

As for `Cn1nccc1-c1cc(C(F)(F)F)ccc1-c1cn(S(C)(=O)=O)c2cc(S(=O)(=O)Nc3ncns3)ccc12` [Example 7, 3-(2-(1-Methyl-1H-Pyrazol-5-yl)-4-(Trifluoromethyl)Phenyl)-1-(Methylsulfonyl)-N-(1,2,4-Thiadiazol-5-yl)-1H-Indole-6-Sulfonamide], the half-maximal inhibitory concentration (IC50) was greater than 10 µM in series [1] and 0.532 µM in series [2].

In the case of `Cn1nccc1-c1cc(C(F)(F)F)ccc1-c1cn(C)c2cc(S(=O)(=O)Nc3ncns3)ccc12` [Example 8, 1-Methyl-3-(2-(1-Methyl-1H-Pyrazol-5-yl)-4-(Trifluoromethyl)Phenyl)-N-(1,2,4-Thiadiazol-5-yl)-1H-Indole-6-Sulfonamide], the half-maximal inhibitory concentration (IC50) in series [1] was greater than 10 µM; in series [2] it was 0.147 µM.

`Cn1cc(-c2ccc(C(F)(F)F)c(Cl)c2)c2ccc(S(=O)(=O)Nc3ncns3)cc21` [Example 24, 3-(3-Chloro-4-(Trifluoromethyl)Phenyl)-1-Methyl-N-(1,2,4-Thiadiazol-5-yl)-1H-Indole-6-Sulfonamide] showed an IC50 in series [1] greater than 10 µM.

In series [1], `COc1cc(F)ccc1-c1cn(C)c2cc(S(=O)(=O)Nc3ncns3)ccc12` [Example 28, 3-(4-FLUORO-2-METHOXYPHENYL)-1-METHYL-N-(1,2,4-Thiadiazol-5-yl)-1H-Indole-6-Sulfonamide] came in with a half-maximal inhibitory concentration (IC50) greater than 10 µM.

For `COc1cc(OC)cc(-c2cn(C)c3cc(S(=O)(=O)Nc4ncns4)ccc23)c1` [Example 29, 3-(3,5-Dimethoxyphenyl)-1-Methyl-N-(1,2,4-Thiadiazol-5-yl)-1H-Indole-6-Sulfonamide], the 50% inhibitory concentration (IC50) in series [1] is greater than 10 µM.

`Cn1cc(-c2ccc(F)c(C#N)c2)c2ccc(S(=O)(=O)Nc3ncns3)cc21` [Example 30, 3-(3-Cyano-4-Fluorophenyl)-1-Methyl-N-(1,2,4-Thiadiazol-5-yl)-1H-Indole-6-Sulfonamide] registered an IC50 in series [1] of 7.63 µM. That is a single-digit micromolar value.

As to `Cn1cc(-c2ccc(C#N)c(F)c2)c2ccc(S(=O)(=O)Nc3ncns3)cc21` [Example 31, 3-(4-Cyano-3-Fluorophenyl)-1-Methyl-N-(1,2,4-Thiadiazol-5-yl)-1H-Indole-6-Sulfonamide], the IC50 in series [1] is greater than 10 µM.

The compound `Cn1cc(-c2ccc(OC(F)(F)F)cc2)c2ccc(S(=O)(=O)Nc3ncns3)cc21` [Example 32, 1-Methyl-N-(1,2,4-Thiadiazol-5-yl)-3-(4-(Trifluoromethoxy)Phenyl)-1H-Indole-6-Sulfonamide] displayed an IC50 in series [1] greater than 10 µM.

In turn, `Cn1cc(-c2cccc(OC(F)(F)F)c2)c2ccc(S(=O)(=O)Nc3ncns3)cc21` [Example 33, 1-Methyl-N-(1,2,4-Thiadiazol-5-yl)-3-(3-(Trifluoromethoxy)Phenyl)-1H-Indole-6-Sulfonamide] registered an IC50 in series [1] greater than 10 µM.

In turn, `Cn1cc(-c2cccc(C#N)c2)c2ccc(S(=O)(=O)Nc3ncns3)cc21` [Example 34, 3-(3-Cyanophenyl)-1-Methyl-N-(1,2,4-Thiadiazol-5-yl)-1H-Indole-6-Sulfonamide] showed an IC50 in series [1] greater than 10 µM.

With `Cn1cc(-c2ccccc2)c2ccc(S(=O)(=O)Nc3ncns3)cc21` [Example 35, 1-Methyl-3-Phenyl-N-(1,2,4-Thiadiazol-5-yl)-1H-Indole-6-Sulfonamide], the 50% inhibitory concentration (IC50) in series [1] was greater than 10 µM.

For `COc1ccc(-c2cn(C)c3cc(S(=O)(=O)Nc4ncns4)ccc23)c(OC)c1` [Example 36, 3-(2,4-Dimethoxyphenyl)-1-Methyl-N-(1,2,4-Thiadiazol-5-yl)-1H-Indole-6-Sulfonamide], the half-inhibitory concentration (IC50) in series [1] was greater than 10 µM.

`Cn1cc(-c2cccc3ccccc23)c2ccc(S(=O)(=O)Nc3ncns3)cc21` [Example 37, 1-Methyl-3-(Naphthalen-1-yl)-N-(1,2,4-Thiadiazol-5-yl)-1H-Indole-6-Sulfonamide] came in with a concentration for half-maximal inhibition (IC50) in series [1] greater than 10 µM.

In series [1], `Cn1cc(-c2cccc3ncccc23)c2ccc(S(=O)(=O)Nc3ncns3)cc21` [Example 38, 1-Methyl-3-(Quinolin-5-yl)-N-(1,2,4-Thiadiazol-5-yl)-1H-Indole-6-Sulfonamide] came in with an IC50 greater than 10 µM.

`Cn1cc(-c2cccc(S(C)(=O)=O)c2)c2ccc(S(=O)(=O)Nc3ncns3)cc21` [Example 39, 1-Methyl-3-(3-(Methylsulfonyl)Phenyl)-N-(1,2,4-Thiadiazol-5-yl)-1H-Indole-6-Sulfonamide]: the half-inhibitory concentration (IC50) in series [1] was greater than 10 µM.

The compound `COc1ccc(-c2cn(C)c3cc(S(=O)(=O)Nc4ncns4)ccc23)c2ccccc12` [Example 40, 3-(4-Methoxynaphthalen-1-yl)-1-Methyl-N-(1,2,4-Thiadiazol-5-yl)-1H-Indole-6-Sulfonamide] gave a half-maximal inhibitory concentration (IC50) in series [1] greater than 10 µM.

As to `COc1ccc(-c2cn(C)c3cc(S(=O)(=O)Nc4ncns4)ccc23)c(Cl)c1` [Example 41, 3-(2-Chloro-4-Methoxyphenyl)-1-Methyl-N-(1,2,4-Thiadiazol-5-yl)-1H-Indole-6-Sulfonamide], the IC50 in series [1] is greater than 10 µM.

As for `Cc1noc(C)c1-c1cn(C)c2cc(S(=O)(=O)Nc3ncns3)ccc12` [Example 42, 3-(3,5-Dimethylisoxazol-4-yl)-1-Methyl-N-(1,2,4-Thiadiazol-5-yl)-1H-Indole-6-Sulfonamide], in series [1], the IC50 was greater than 10 µM.

With `Cn1cc(-c2ccc(Br)cc2C(F)(F)F)c2ccc(S(=O)(=O)Nc3ncns3)cc21` [Example 43, 3-(4-Bromo-2-(Trifluoromethyl)Phenyl)-1-Methyl-N-(1,2,4-Thiadiazol-5-yl)-1H-Indole-6-Sulfonamide], the IC50 in series [1] was greater than 10 µM.

Compound `Cn1cc(-c2ccccc2C(F)(F)F)c2ccc(S(=O)(=O)Nc3ncns3)cc21` [Example 44, 1-Methyl-N-(1,2,4-Thiadiazol-5-yl)-3-(2-(Trifluoromethyl)Phenyl)-1H-Indole-6-Sulfonamide] showed a half-inhibitory concentration (IC50) in series [1] greater than 10 µM.

With `Cc1cnc(N)c(-c2cn(C)c3cc(S(=O)(=O)Nc4ncns4)ccc23)c1` [Example 45, 3-(2-Amino-5-Methylpyridin-3-yl)-1-Methyl-N-(1,2,4-Thiadiazol-5-yl)-1H-Indole-6-Sulfonamide], in series [1], the half-maximal inhibitory concentration (IC50) is greater than 10 µM.

For the compound `Cc1cc(C#N)ccc1-c1cn(C)c2cc(S(=O)(=O)Nc3ncns3)ccc12` [Example 46, 3-(4-Cyano-2-Methylphenyl)-1-Methyl-N-(1,2,4-Thiadiazol-5-yl)-1H-Indole-6-Sulfonamide], in series [1], the IC50 was greater than 10 µM.

In series [1], `CN(C)c1cccc(-c2cn(C)c3cc(S(=O)(=O)Nc4ncns4)ccc23)c1` [Example 47, 3-(3-(Dimethylamino)Phenyl)-1-Methyl-N-(1,2,4-Thiadiazol-5-yl)-1H-Indole-6-Sulfonamide] came in with a half-inhibitory concentration (IC50) greater than 10 µM.

On to `Cn1cc(-c2cccc(C(F)(F)F)c2)c2ccc(S(=O)(=O)Nc3ncns3)cc21` [Example 48, 1-Methyl-N-(1,2,4-Thiadiazol-5-yl)-3-(3-(Trifluoromethyl)Phenyl)-1H-Indole-6-Sulfonamide], for which the 50% inhibitory concentration (IC50) in series [1] is greater than 10 µM.

As to `COc1ccc(-c2cn(C)c3cc(S(=O)(=O)Nc4ncns4)ccc23)cc1C(F)(F)F` [Example 49, 3-(4-Methoxy-3-(Trifluoromethyl)Phenyl)-1-Methyl-N-(1,2,4-Thiadiazol-5-Yl)-1H-Indole-6-Sulfonamide], the IC50 in series [1] was greater than 10 µM.

`Cn1nccc1-c1cn(C)c2cc(S(=O)(=O)Nc3ncns3)ccc12` [Example 52, 1-Methyl-3-(1-Methyl-1H-Pyrazol-5-Yl)-N-(1,2,4-Thiadiazol-5-Yl)-1H-Indole-6-Sulfonamide] had an IC50 in series [1] greater than 10 µM.

For the origin of these results see patent US9079902B2, “Heteroaryl sodium channel inhibitors” (AMGEN INC., priority 2011, dated 2015).
